What was measured:
CatB in N2A cells = assay: N2A cells treated with Aβ peptides: CatB mRNA (quantitative RT-PCR) and CatB activity; format: cell-based, murine; conditions: 20 μM; for CatB enzymatic activities / CatB mRNA levels: nonaggregated peptide, 24 h
Description: (§1) Unless otherwise noted, all cell culture supplies, medium, and antibiotics were from Invitrogen (Carlsbad, Calif.). The murine neuronal cell line N2A was maintained in Dulbecco's modified Eagle's medium (DMEM) with 10% heat-inactivated fetal bovine serum (FBS), 100 U/ml penicillin G, and 100 μg/ml streptomycin at 37° C. in a humidified atmosphere containing 5% CO2. Before treatment, the medium was replaced with Neurobasal A medium supplemented with N2, and the cells were treated with fresh Aβ1-42 or Aβ1-40 at various concentrations for 24 h.
(§2) Aβ1-42 and Aβ1-40 were from rPeptide (Athens, Ga.). Aβ powders lyophilized with hexafluoroisopropanol were reconstituted in dry dimethylsulfoxide (Sigma) at a concentration of 5 mM. Aggregated Aβ1-42 was prepared based on protocols developed in previous studies (Dahlgren et al., 2002; Lambert et al., 1998). For protofibrillar Aβ1-42 preparations, DMEM/F-12 was added to achieve a final peptide concentration of 100 μM and incubated at 4° C. for 24 h. For fibrillar conditions, 10 mM HCl was added to achieve a final peptide concentration of 100 μM and incubated for 24 h at 37° C. For unaggregated conditions (fresh Aβ), the 5 mM Aβ in […] was diluted directly into cell-culture medium. For Aβ1-40 aggregation, Aβ1-40 was reconstituted in H2O at a concentration of 5 mg/ml, and incubated for one week at 37° C.
(§3) CatB activities in N2A cells or in hippocampus of hAPP mice and their littermate controls were quantified with the Innozyme Cathepsin B Activity Assay Kit (EMD Biosciences), according to the manufacturer's instructions. Cells or hippocampi were lysed in lysis buffer in the absence of proteinase inhibitors, preactivated with 4 mM cysteine, and incubated with the synthetic substrate Z-Arg-Arg AMC at 37° C. for 30 min. Released free AMC was determined fluorometrically as above. The enzymatic activities inhibited by CA074 were defined as CatB-specific activities. Protein concentrations were measured with the BCA protein assay kit (Pierce) and used to normalize CatB activities.
Expression of CatB was measured by quantitative RT-PCR. Total RNA in N2A cells was isolated with Trizol reagent (Invitrogen). After treatment with RNase-free DNase (Ambion) for 30 min at 37° C., total RNA (60 ng/ml) was reverse-transcribed with random hexamers and oligo d(T) primers. The expression of CatB relative to GAPDH was determined with SYBR green dye chemistry and an ABI Prism 7700 sequence detector (Applied Biosystems, Foster City, Calif.), as recommended by the manufacturer. Primer quality was verified by dissociation curve analysis, the slopes of standard curves, and reactions without RT. The following primers were used: mouse CatB (forward 5′-[…]-3′ (SEQ ID NO:7); reverse 5′-[…]-3′ (SEQ ID NO:8)) and mouse GAPDH (forward 5′-[…]-3′ (SEQ ID NO:9); reverse 5′-[…]-3′ (SEQ ID NO:10)).

[1] = biological target: T1, purified CatB from human liver (Homo sapiens, UniProt P07858); assay: Inhibition of CatB-induced Aβ1-42 cleavage by CA074 in the in vitro cleavage assay; format: biochemical
T1 construct: purified CatB from human liver (Sigma); purchased Sigma; host or cells: human liver (tissue-purified)
Description: (§4) Different amounts of purified CatB from human liver (Sigma) were preactivated with 4 mM cysteine at room temperature for 5 min in assay buffer, pH 6.0 or 7.0 after adjustment (Cathepsin B Activity Assay Kit, EMD Biosciences). Then, 20 ng of fresh, protofibrillar, or fibrillar Aβ1-42 was added and incubated at 37° C. for 120 min. All samples were run in parallel with and without the specific CatB inhibitor CA074. CatB-induced peptidase cleavage of Aβ1-42 was detected with mass spectrometry. Briefly, 5 μl of the reaction mixture was applied to an NP-20 normal-phase chip (Ciphergen Biosystems, Fremont, Calif.), and the spots were washed with water and air-dried. Twenty percent α-cyano-4-hydroxycinnamic acid in 50% acetonitrile, 0.5% trifluoroacetic acid (2×0.5 μl) was applied, and the chips were allowed to dry. Samples were analyzed in a PBS ITC SELDI-TOF mass spectrometer (Ciphergen) as an average of 160 shots for each spot. The system was calibrated daily with All-in-One peptide standards (Ciphergen) and synthetic Aβ1-42.
(§5) The products were also analyzed by western blotting on acid-urea gels with an anti-Aβ antibody (3D6) as described (DeMattos et al., 2001; Esposito et al., 2004) or on a Tricine SDS-PAGE. Briefly, 10 μl of the reaction mixture were resolved on 16% tricine gels and transferred to nitrocellulose membranes. Membranes were labeled with 21F12 (1:2000, Elan Pharmaceuticals), an antibody specific for Aβ1-42, to detect low MW Aβ1-42 oligomers. Since 21F12 was unable to detect higher MW assemblies, 3D6 (1:2000, Elan) was also used for immunoblotting. After incubation with an HRP-conjugated sheep anti-mouse IgG (1:2000; Amersham) secondary antibody, blots were developed with an ECL system (Perkin Elmer).

[2] = system: cathepsin B activity in neuronal cells (N2a); assay: CatB activity assay in N2a cells treated with indomethacin; format: cell-based, murine; conditions: indomethacin 25 μM-75 μM, 18-24 h
Description: as §1, §3
Neurobiatoma cell N2a cells were treated with indomethacin (25 μM-75 μM) for 18-24 h before being harvested for CatB activity assay.

Aβ1-42 = assay: In vitro cleavage assay of Aβ1-42 by purified CatB (SELDI-TOF MS, western blot, electron microscopy); format: biochemical
Description: as §2
Aβ1-42 and Aβ1-40 samples were characterized by negative-staining electron microscopy (JEOL 1230, Peabody, Mass.). Samples were prepared with “matured” carbon-coated grids and 2% potassium phosphotungstate, pH 6.5, using the drop method (Hamilton et al., 1980), and examined at 80 KV with a condenser aperture of 200 μm and an objective aperture of 50 μm. Images were obtained with a Gatan Ultrascan USC1000 digital camera (Gatan, Warrendale, Pa.).
as §4, §5

## Aβ1-40: amyloid-β peptide 1-40 from rPeptide; tested nonaggregated and preaggregated
CatB in N2A cells
  CatB enzymatic activities: little or no effect
  CatB mRNA levels: little or no effect
CatB in N2A cells; preaggregated peptide
  CatB activity: modest but significant increase

## CCCNC(=O)[C@H]1O[C@@H]1C(=O)N[C@H](C(=O)N1CCC[C@H]1C(=O)O)[C@@H](C)CC [CA074]
[1]; Tricine SDS-PAGE
  effect of the inhibitor on CatB-induced decrease of Aβ assemblies: significantly diminished such effects
[1]; electron microscopy
  effect of the inhibitor on CatB-induced reduction of Aβ1-42 fibrils: inhibition with CA074
[1]; pH 6.0, SELDI-TOF
  CatB-induced truncations of Aβ1-42 in the presence of the inhibitor: No truncations occurred

## COc1ccc2c(c1)c(CC(=O)O)c(C)n2C(=O)c1ccc(Cl)cc1 [indomethacin]
[2]
  CatB activity: significant increase in CatB activity in a dose-dependent manner

## Aβ1-42: amyloid-β peptide 1-42 from rPeptide
CatB in N2A cells
  CatB enzymatic activities: markedly increased
  CatB mRNA levels: markedly increased

## CatB: purified CatB from human liver (Sigma), preactivated with cysteine
Aβ1-42; Tricine SDS-PAGE, CatB 1-2 μg/ml
  amounts of high-molecular-weight Aβ assemblies: marked decrease
Aβ1-42; Tricine SDS-PAGE, antibody specific for Aβ1-42
  levels of low-MW Aβ1-42 oligomers and monomers: also reduced
Aβ1-42; cell-free, pH 6.0, CatB 100-2500 ng/ml, SELDI-TOF
  proteolytic products from fresh (nonaggregated) Aβ1-42: dose-dependent generation of Aβ1-40, Aβ1-38, and Aβ1-33
Aβ1-42; electron microscopy
  amount of fibrillar structures of preformed Aβ1-42 fibrils: did reduce the amount of fibrillar structures
Aβ1-42; neutral pH (~7.0)
  ability to cleave Aβ, especially nonaggregated (fresh) Aβ: markedly reduced
Aβ1-42; pH 6.0
  cleavage of protofibrillar Aβ1-42: cleaved by CatB as efficiently as nonaggregated preparations
